Measured values reported in patent publication US20220017433A1 (UNIVERSITÄT ZÜRICH, priority 2018, published 2022).

Assay: Water solubility of the chelating compounds
Assay type: physicochemical
Settings: aqueous stock solution, pH lowered with HCl

pH below which the compound starts to precipitate slowly: ~9
Substance: Desferrioxamine-p-arylazide [DFO-ArN3]
